Values quoted from earlier work, collected in publication PMC3834896.
Where two headings read alike, the source gives them in different places.

Assay: not told

Compound	log partition n-octanol / PBS or water (not told) [log10]	log partition n-octanol / PBS or water [log10]
CCCCCC(=O)N(C)C	1.4	–
CCCCCCCCCCCCN1CCCC1=O	–	4.9
CCCCCCCCC(=O)N(C)C	1.9	–
CCCCCCCCCCN1CCCC1=O	–	4.1
CCCCN1CCCCC1=O	–	1.4
CCCCCCN1CCCCCC1=O	2.9	–
CCCCCCCC(=O)N(C)C	2.6	–
CCCCCCCCN1CCCC1=O	–	3.0
CCCCN1CCCC1=O	–	1.02
CCCCCCCCCC(=O)N1CC(O)CC1C(=O)NCC (centres unmarked)	2.9	–
CCCCCCCCN1CCCCC1=O	–	3.4
CCCCN1CCCCCC1=O	1.8	–
CCCCCCCCCCCCN1CCCCCC1=O	6.3	–
CCCCCCC(=O)N(C)C	1.9	–
CCCCCCCCN1CCCCCC1=O	4.0	–
CCCCCCN1CCCCC1=O	–	2.6
CCCCCCN1CCCC1=O	–	2.1
